Data from ChEMBL document CHEMBL3994613, “Diaryltriazenes as antibacterial agents against methicillin resistant Staphylococcus aureus (MRSA) and Mycobacterium smegmatis” (Eur J Med Chem, 2017).
≈ marks a conversion by molar mass, not a printed value.

Key:
[1] = test system: Mycolicibacterium smegmatis; assay: Antimycobacterial activity against Mycobacterium smegmatis MC2 155 after 3 days by broth macrodilution method; format: functional; details: str. MC2 155, 72 h
Staphylococcus aureus = assay: Antibacterial activity against methicillin-resistant Staphylococcus aureus USA300 by broth microdilution method

| Compound | MIC [1] | MIC (Staphylococcus aureus) |
| --- | --- | --- |
| CC1(C)S[C@@H]2[C@H](NC(=O)[C@H](N)c3ccccc3)C(=O)N2[C@H]1C(=O)O [AMPICILLIN] | 128 µg/mL (≈ 366 µM) |  |
| CC1(C)S[C@@H]2[C@H](NC(=O)C(C(=O)O)c3ccccc3)C(=O)N2[C@H]1C(=O)O (some centres not stated) [CARBENICILLIN] | 512 µg/mL (≈ 1350 µM) |  |
| CO[C@@]1(NC(=O)Cc2cccs2)C(=O)N2C(C(=O)O)=C(COC(N)=O)CS[C@@H]21 [CEFOXITIN] | 2 to 4 µg/mL (≈ 4.68 to 9.36 µM) |  |
| CO/N=C(\C(=O)N[C@@H]1C(=O)N2C(C(=O)O)=C(CSc3nc(=O)c(O)nn3C)CS[C@H]12)c1csc(N)n1 [CEFTRIAXONE] | 32 µg/mL (≈ 57.7 µM) |  |
| N[C@@H]1CONC1=O [CYCLOSERINE] | 105 µg/mL (≈ 1030 µM) |  |
| CC(=O)NC[C@H]1CN(c2ccc(N3CCOCC3)c(F)c2)C(=O)O1 [LINEZOLID] |  | 2 to 4 µg/mL (≈ 5.93 to 11.9 µM) |
| C/C(=C\C(=O)OCCCCCCCCC(=O)O)C[C@@H]1OC[C@H](C[C@@H]2O[C@H]2[C@@H](C)[C@H](C)O)[C@@H](O)[C@H]1O [MUPIROCIN] |  | 0.5 to 64 µg/mL (≈ 0.999 to 128 µM) |
| Cc1onc(-c2ccccc2)c1C(=O)N[C@@H]1C(=O)N2[C@@H]1SC(C)(C)[C@@H]2C(=O)O [OXACILLIN] | 32 µg/mL (≈ 79.7 µM) | 16 to 32 µg/mL (≈ 39.9 to 79.7 µM) |
| NC[C@H]1O[C@H](O[C@H]2[C@H](O)[C@@H](O[C@H]3O[C@H](CO)[C@@H](O)[C@H](N)[C@H]3O)[C@H](N)C[C@@H]2N)[C@H](N)C[C@@H]1O [TOBRAMYCIN] |  | 0.5 to 2 µg/mL (≈ 1.07 to 4.28 µM) |
| CN[C@H](CC(C)C)C(=O)N[C@H]1C(=O)N[C@@H](CC(N)=O)C(=O)N[C@H]2C(=O)N[C@H]3C(=O)N[C@H](C(=O)N[C@H](C(=O)O)c4cc(O)cc(O)c4-c4cc3ccc4O)[C@H](O)c3ccc(c(Cl)c3)Oc3cc2cc(c3O[C@@H]2O[C@H](CO)[C@@H](O)[C@H](O)[C@H]2O[C@H]2C[C@](C)(N)[C@H](O)[C@H](C)O2)Oc2ccc(cc2Cl)[C@H]1O [VANCOMYCIN] | 45 µg/mL (≈ 31.1 µM) | 0.25 to 2 µg/mL (≈ 0.173 to 1.38 µM) |
